Assay [1] concerns SNI rats. The assay can be described thus: Spared nerve injury (SNI) rats, Hargreaves thermal test. Format: in vivo, rat. Particulars: 30 mg/kg, 1 mL I.P. On the procedure:
FIG. 3A. Spared Nerve Injury (SNI) rats' left hindpaw withdrawal latencies in response to thermal stimulation (Hargreaves test). Each SNI rat received either EXAMPLE-106, 107, or 115, (each 30 mg/kg, 1 mL I.P.), or vehicle (2% DMSO in 0.5% HPC). Sham rats also received vehicle I.P. injections. […] 40 seconds were cutoff in order to prevent tissue damage. The sham-vehicle serves as a positive control (n=8 per treatment group).
(§1) In additional examples shown here, the analgesic effects were further evaluated in another rat species. Baseline thermal and mechanical thresholds of male rats (Sprague-Dawley rats, 275 g-325 g, Harlan) were taken prior to surgery; baseline thresholds were measured on the rats' left hindpaws. Thirty-two rats underwent the SNI surgery on their left hind leg; 8 rats underwent surgery without injury of the nerves as a sham group. Two weeks post-surgery, the thermal thresholds of each rat were reassessed. […] Each rat received either EXAMPLE-106, -107, -115 (each 30 mg/kg, 1 mL I.P.), or vehicle (2% DMSO in 0.5% HPC). Thermal and mechanical thresholds were measured at 1, 2, 3, 4, 5, 6, 7, and 8 hours post-treatment/dosing. […] The drug actions started around 1 hour post-injection and peaked between 2 and 3 hours, and the drug effects gradually declined to pre-treatment levels over 6-7 hours (FIGS. 3A and B).

The test system of assay [2] is SNI rats. The assay can be described thus: Spared nerve injury (SNI) rats, von Frey monofilament test. The class given is in vivo, rat. The note with it: for start of drug action post-injection: 30 mg/kg I.P., thermal and mechanical thresholds; for mechanical pain threshold of left hindpaw (allodynia): 30 mg/kg, 1 mL I.P. As to the method:
FIG. 3B. Mechanical pain threshold assessment (von Frey monofilament test) of SNI rats' left hindpaws. Each SNI rat received either EXAMPLE-106, -107, and -115 (each 30 mg/kg, 1 mL I.P.), or vehicle (1 mL I.P. 2% DMSO in 0.5% HPC). Sham rats also received vehicle I.P. injections. […] The sham-vehicle serves as a positive control. Thermal and mechanical pain responses were measured once every hour for 8 consecutive hours after I.P. treatment (n=8 rats per treatment group).
FIG. 4. Mechanical pain threshold assessment (von Frey monofilament test) of left hindpaws in another cohort of SNI rats. Each SNI rat received either EXAMPLE-128, -130, -132, or Z944 (as a reference compound, each 10 mg/kg, 2 mL oral gavage, P.O.). […] Mechanical pain responses were measured at pre-dosing, 1, 2, 4, and 6 hours post-treatment using von Frey monofilament test (n=8 rats per group).
as §1
In another cohort of SNI rats ((n=8 per group)), mechanical thresholds were measured at pre-dosing, 1, 2, 4, and 6 hours post-treatment using von Frey monofilament test.

Another assay has as its target T1, Cav3.2 channel (Homo sapiens, UniProt O95180).
T1 construct: expressed in transfected cells; host or cells: HEK-293, tetracycline inducible expression system (Invitrogen)
Description: Whole-cell patch clamp of T-type Cav3.2 channel expressed in HEK293 cells. Format: cell-based. The note with it: for inhibition at 1 µM: HEK293, Table 1 primary screening. (In general: In patch-clamp work, channel activity is measured electrically.)

The next assay has as its system CFA mice. The assay can be described thus: Complete Freund's Adjuvant (CFA)-induced inflammatory pain in mice, von Frey test. Format: in vivo, mouse. The note with it: 30 mg/kg I.P. As to the method: FIG. 7. Effects of EXAMPLE-96, 107 or 115 (each 30 mg/kg, I.P.) or gabapentin (as a benchmark, 100 mg/kg, I.P) on Complete Freund's Adjuvant (CFA)-induced inflammation in male, mice (C57BL/6, ˜2 months old; n=8 mice per group). Mechanical pain threshold assessment of CFA mice's left hindpaws were measured using von Frey monofilament test at 0.5, 1, 2, 4, and 6 hours after treatment.
Because knockout or antisense knockdown of the Cav3.2 isoform produces analgesic effects in neuropathic pain as well as in inflammatory pain in mice (Choi et al., 2007), we used the Complete Freund adjuvant (CFA)-inflammatory pain in mice to investigate the drug effects. EXAMPLE-96, -115, and -107 (each at 30 mg/kg, I.P.) and a reference gabapentin (100 mg/kg, I.P.) was individually administered to mice that had CFA-induced inflammation on their left hindpaws.

Assay [3] concerns incision-induced pain in mice. Description: Incision-induced acute pain in mice, von Frey test. Format: in vivo, mouse. Particulars: 30 mg/kg I.P. On the procedure: FIG. 9. Effects of EXAMPLE-116, -118 or ML218 (a reference compound) on incision-induced acute pain in mice (C57BL/6, male, ˜2 months old; n=8 mice per treatment group). Mechanical pain threshold assessment (von Frey monofilament test) of the mice's incision left hindpaws. Each mouse received either EXAMPLE-116, -118, or ML218 (as a reference compound, each 30 mg/kg, I.P.) or vehicle (2% DMSO in 0.5% HPC, I.P.). Mechanical pain responses were measured at 0.5, 1, 2, 4, and 5 hours after treatment.
To further confirm the Cav3 modulator effects on acute pain and neurogenic inflammatory pain, an incision-pain mode in mice was used. Postoperative pain model induced by a deep incision in the hindpaw produces robust mechanical allodynia (Pogatzki et al., 2003). Mechanical pain thresholds were assessed using von Frey monofilament test of the incised left hindpaws. Each mouse received either EXAMPLE-116, -118, ML218 (as a reference compound, each 30 mg/kg, I.P.) or vehicle (2% DMSO in 0.5% HPC, I.P., n=8 mice per treatment group). Mechanical pain responses were measured at 0.5, 1, 2, 4, and 5 hours after treatment.

Assay [4] deals with taxol-induced neuropathic pain model in mice. The assay can be described thus: Taxol-induced neuropathic pain in mice, von Frey test. The class given is in vivo, mouse. Particulars: 30 mg/kg I.P. As to the method:
FIG. 6A. Effects of EXAMPLE-115 on taxol (4 mg/kg, I.P.)-induced neuropathic pain model in mice. Mechanical pain thresholds of left hindpaws were assessed using von Frey monofilament test. Each mouse received either EXAMPLE-115 (3, 10 or 30 mg/kg, I.P.) or vehicle (2% DMSO in 0.5% HPC, I.P.; n=8 per group). Injection of taxol lowered mechanical pain thresholds.
FIG. 6B. Effects of EXAMPLE-123 on taxol (4 mg/kg, I.P.)-induced neuropathic pain model in a separate cohort of mice. Mechanical pain thresholds of left hindpaws were assessed using von Frey monofilament test. Each mouse received either EXAMPLE-123 (30 mg/kg, I.P., n=8) or vehicle (2% DMSO in 0.5% HPC, I.P.).
Chemotherapy-induced painful neuropathy is a common side effect associated with chronic treatment with Taxol (paclitaxel) or other anticancer drugs based on cytotoxicity. Taxol or paclitaxel is one of the most popular drugs used for the treatment of various cancers (Chaudhry et al., 1994). The chemotherapy-induced peripheral neuropathy manifests as chronic hyperalgesia and other sensory abnormalities. Taxol (Sigma, 4.0 mg/kg, I.P.) was dissolved in saline containing 5% DMSO (vehicle) and injected to mice (freshly prepared before injection).

A further assay deals with T-type Ca2+ current. Particulars: Avdonin et al., 2000; cited from earlier work.

Molecules are shown by their SMILES. “Also recorded” adds a separate entry of the source.

We go through six molecules from patent publication US10562857B2 (AFASCI, Inc., priority 2015, dated 2020).

T1 sequence (O95180 whole entry): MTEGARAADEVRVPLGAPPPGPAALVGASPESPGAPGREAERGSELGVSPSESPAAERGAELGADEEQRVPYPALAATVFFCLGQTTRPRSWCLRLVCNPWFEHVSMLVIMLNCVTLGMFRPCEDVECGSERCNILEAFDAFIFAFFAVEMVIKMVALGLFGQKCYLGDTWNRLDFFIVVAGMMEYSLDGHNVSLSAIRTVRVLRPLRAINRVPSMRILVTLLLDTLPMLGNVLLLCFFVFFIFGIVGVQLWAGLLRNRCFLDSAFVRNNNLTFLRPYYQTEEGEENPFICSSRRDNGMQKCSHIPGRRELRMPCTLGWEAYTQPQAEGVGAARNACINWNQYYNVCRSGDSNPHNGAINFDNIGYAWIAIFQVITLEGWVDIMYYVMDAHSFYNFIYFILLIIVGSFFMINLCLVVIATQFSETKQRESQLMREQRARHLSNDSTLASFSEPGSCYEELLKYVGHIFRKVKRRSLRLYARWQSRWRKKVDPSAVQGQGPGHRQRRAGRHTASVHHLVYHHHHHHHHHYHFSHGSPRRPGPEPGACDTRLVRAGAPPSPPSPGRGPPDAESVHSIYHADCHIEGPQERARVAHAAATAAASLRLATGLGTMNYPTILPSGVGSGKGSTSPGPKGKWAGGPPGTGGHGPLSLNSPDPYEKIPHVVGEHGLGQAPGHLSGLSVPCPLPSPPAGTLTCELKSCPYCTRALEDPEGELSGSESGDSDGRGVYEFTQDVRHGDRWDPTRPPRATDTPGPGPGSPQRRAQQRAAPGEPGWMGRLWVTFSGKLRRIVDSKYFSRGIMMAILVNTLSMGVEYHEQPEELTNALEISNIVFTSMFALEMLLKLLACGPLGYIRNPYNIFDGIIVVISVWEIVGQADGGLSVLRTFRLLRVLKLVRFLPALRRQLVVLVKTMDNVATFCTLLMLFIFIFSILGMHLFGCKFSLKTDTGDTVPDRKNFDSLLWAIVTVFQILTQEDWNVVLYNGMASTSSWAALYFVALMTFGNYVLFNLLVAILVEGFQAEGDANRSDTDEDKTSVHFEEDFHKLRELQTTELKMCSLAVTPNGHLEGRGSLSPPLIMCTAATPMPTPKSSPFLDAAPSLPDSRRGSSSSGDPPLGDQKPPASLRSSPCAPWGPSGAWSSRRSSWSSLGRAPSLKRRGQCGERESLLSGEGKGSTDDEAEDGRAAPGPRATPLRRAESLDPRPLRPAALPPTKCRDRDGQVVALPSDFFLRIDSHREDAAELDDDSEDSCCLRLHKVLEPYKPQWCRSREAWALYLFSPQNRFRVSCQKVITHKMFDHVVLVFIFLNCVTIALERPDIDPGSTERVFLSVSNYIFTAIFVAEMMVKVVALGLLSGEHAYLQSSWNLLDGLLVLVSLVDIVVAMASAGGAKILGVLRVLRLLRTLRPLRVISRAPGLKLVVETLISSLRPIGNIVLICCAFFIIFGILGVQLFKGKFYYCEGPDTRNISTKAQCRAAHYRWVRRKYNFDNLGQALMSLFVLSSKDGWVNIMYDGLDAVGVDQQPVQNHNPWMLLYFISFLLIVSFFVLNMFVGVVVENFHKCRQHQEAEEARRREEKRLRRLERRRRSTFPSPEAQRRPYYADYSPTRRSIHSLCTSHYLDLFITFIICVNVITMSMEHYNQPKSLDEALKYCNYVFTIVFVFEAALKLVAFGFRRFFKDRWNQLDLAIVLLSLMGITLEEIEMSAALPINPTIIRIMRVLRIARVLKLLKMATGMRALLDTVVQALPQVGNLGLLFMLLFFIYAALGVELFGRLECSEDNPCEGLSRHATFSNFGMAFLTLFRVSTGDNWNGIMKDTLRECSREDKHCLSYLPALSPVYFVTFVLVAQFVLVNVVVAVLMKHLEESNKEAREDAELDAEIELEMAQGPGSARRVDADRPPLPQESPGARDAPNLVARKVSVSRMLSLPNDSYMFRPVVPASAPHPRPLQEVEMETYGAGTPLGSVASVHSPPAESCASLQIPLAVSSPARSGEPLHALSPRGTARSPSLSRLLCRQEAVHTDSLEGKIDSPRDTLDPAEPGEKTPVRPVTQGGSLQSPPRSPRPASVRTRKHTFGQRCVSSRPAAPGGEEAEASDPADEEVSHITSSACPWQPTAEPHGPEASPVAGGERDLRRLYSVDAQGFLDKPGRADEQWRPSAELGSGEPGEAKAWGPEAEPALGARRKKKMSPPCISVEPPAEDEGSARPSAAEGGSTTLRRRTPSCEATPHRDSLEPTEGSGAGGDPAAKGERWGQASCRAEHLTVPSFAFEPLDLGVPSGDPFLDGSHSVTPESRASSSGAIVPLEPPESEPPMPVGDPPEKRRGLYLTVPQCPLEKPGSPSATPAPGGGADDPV

For `O=C(CN1CCC(CNCC(=O)c2ccc[nH]2)CC1)Nc1ccccc1` [Example 106, 2-(4-(((2-Oxo-2-(1H-pyrrol-2-yl)ethyl)amino)methyl)piperidin-1-yl)-N-phenylacetamide], the “left hindpaw withdrawal latency to thermal stimulation (hyperalgesia)” value in the assay with SNI rats [1] was “elevated both thermal and mechanical thresholds; also recorded: reduced hyperalgesia”. Further, in the assay with SNI rats [2], the “start of drug action post-injection” value is reported as “around 1 hour”; the “mechanical pain threshold of left hindpaw (allodynia)” value is “elevated both thermal and mechanical thresholds; also recorded: reduced allodynia”.
What is called inhibition is the drop in the measured response relative to a control, in per cent. Lower therefore signals a weak effect. As to `CC1(CNC(=O)c2ccccc2)CCN(CC(=O)NC(C)(C)C)CC1` [Example 107, N-((1-(2-(tert-butylamino)-2-oxoethyl)-4-methylpiperidin-4-yl)methyl)benzamide], on Cav3.2 channel, the inhibition at 1 µM was 21%. Moreover, the “left hindpaw withdrawal latency to thermal stimulation (hyperalgesia)” value in the assay on SNI rats [1] was “elevated both thermal and mechanical thresholds; also recorded: reduced hyperalgesia”. Further, in the assay with SNI rats [2], the “start of drug action post-injection” value is on record as “around 1 hour”; the “mechanical pain threshold of left hindpaw (allodynia)” value was “elevated both thermal and mechanical thresholds; also recorded: reduced allodynia”. For the same molecule, the “mechanical pain threshold, CFA-induced inflammation” value with CFA mice is “showed an analgesic effect in mechanical pain”.
As for `O=C(Nc1nnc(-c2ccc(Cl)s2)o1)N1C(=O)c2cc(Cl)c(Cl)cc2C1=O` [Example 116, 5,6-Dichloro-N-(5-(5-chlorothiophen-2-yl)-1,3,4-oxadiazol-2-yl)-1,3-dioxoisoindoline-2-carboxamide], testing at 1 µM against Cav3.2 channel gave an inhibition of 10%. Besides, the “mechanical pain threshold, incision-induced pain” value in assay [3] is reported as “inhibited incision-induced inflammatory pain”.
For `O=C(CCc1cccc(Cl)c1)Nc1nnc(-c2ccc(Cl)s2)o1` [Example 118, 3-(3-Chlorophenyl)-N-(5-(5-chlorothiophen-2-yl)-1,3,4-oxadiazol-2-yl)propanamide] the same measures were 20% and “inhibited incision-induced inflammatory pain”.
Broadly, the IC50 is the concentration that gives 50% inhibition. For the molecule `O=C(CNc1ccccc1)Nc1nnc(-c2ccccc2)o1` [Example 123, N-(5-Phenyl-1,3,4-oxadiazol-2-yl)-2-(phenylamino)acetamide], at Cav3.2 channel (Table 1, tested at at least 4 concentrations, read-out: IC50), the half-inhibitory concentration (IC50) is 5.1 µM. Moreover, the “duration of reduction of taxol-induced neuropathic pain” value in assay [4] is on record as “at least 5 hours”. For the same molecule, the “mechanical pain threshold, taxol-induced neuropathic pain” value in assay [4] (taxol 4 mg/kg I.P.) is reported as “caused significant effects on Taxol-induced pain; also recorded: reduced the taxol-induced neuropathic pain”.
Turning to `COCC(=O)O[C@]1(CCN(C)CCCc2nc3ccccc3[nH]2)CCc2cc(F)ccc2[C@@H]1C(C)C` [mibefradil], the “potency of T-type inhibition relative to L-type Ca2+ current or voltage-gated Na+ current” value in the assay on T-type Ca2+ current was 3-10 times.
